According to BigSolDB 2.1:

A solubility (mole fraction) (in ethanol, 283.15 K) of 7.7e-05, a solubility (mole fraction) (in ethanol, 288.15 K) of 9.1e-05 and a solubility (mole fraction) (in ethanol, 293.15 K) of 0.000113 were found for `O=c1cc[nH]c(=O)[nH]1` in this work. For the same compound, the solubility (mole fraction) (in ethanol, 298.15 K) was 0.000135, the solubility (mole fraction) (in ethanol, 303.15 K) was 0.000166 and the solubility (mole fraction) (in ethanol, 308.15 K) was 0.000212. For the same compound, the solubility (mole fraction) (in ethanol, 313.15 K) was 0.000248, the solubility (mole fraction) (in ethanol, 318.15 K) was 0.000296 and the solubility (mole fraction) (in isopropanol, 283.15 K) was 6.6e-05. It also gave a solubility (mole fraction) (in isopropanol, 288.15 K) of 7.6e-05, a solubility (mole fraction) (in isopropanol, 293.15 K) of 0.000105 and a solubility (mole fraction) (in isopropanol, 298.15 K) of 0.00014. For the same compound, the solubility (mole fraction) (in isopropanol, 303.15 K) was 0.000169, the solubility (mole fraction) (in isopropanol, 308.15 K) was 0.000216 and the solubility (mole fraction) (in isopropanol, 313.15 K) was 0.000245. For the same compound, the solubility (mole fraction) (in isopropanol, 318.15 K) was 0.000281, the solubility (mole fraction) (in methanol, 283.15 K) was 0.000152 and the solubility (mole fraction) (in methanol, 288.15 K) was 0.000166. It also gave a solubility (mole fraction) (in methanol, 293.15 K) of 0.000206, a solubility (mole fraction) (in methanol, 298.15 K) of 0.000253 and a solubility (mole fraction) (in methanol, 303.15 K) of 0.000307. The solubility (mole fraction) (in methanol, 308.15 K) was 0.000362, the solubility (mole fraction) (in methanol, 313.15 K) was 0.000414 and the solubility (mole fraction) (in methanol, 318.15 K) was 0.000519. It also gave a solubility (mole fraction) (in water, 283.15 K) of 0.000166, a solubility (mole fraction) (in water, 288.15 K) of 0.000209 and a solubility (mole fraction) (in water, 293.15 K) of 0.000264. The solubility (mole fraction) (in water, 298.15 K) was 0.000332, the solubility (mole fraction) (in water, 303.15 K) was 0.00042 and the solubility (mole fraction) (in water, 308.15 K) was 0.000513. The solubility (mole fraction) (in water, 313.15 K) was 0.000613 and the solubility (mole fraction) (in water, 318.15 K) was 0.000738.
